{"source": "the NIST ThermoML archive (doi:10.1021/acs.jced.7b00802)", "conditions": "Liquid, Ebulliometric method (Recirculating still)", "note": "Numbers after ± are expanded uncertainties."}
{"smiles": "CCCCCC", "note": "[hexane]", "values": [{"measurement": "vapor or sublimation pressure", "setting": "341.88 K", "value": "101.3 ± 0.8", "unit": "kPa"}]}
{"smiles": "COCCOC", "note": "[1,2-dimethoxyethane]", "values": [{"measurement": "vapor or sublimation pressure", "setting": "357.75 K", "value": "101.3 ± 0.8", "unit": "kPa"}]}
{"smiles": "CC1CCCC1", "note": "[methylcyclopentane]", "values": [{"measurement": "vapor or sublimation pressure", "setting": "344.96 K", "value": "101.3 ± 0.8", "unit": "kPa"}]}
